From US8022103B2, “Ester prodrugs of prostratin and related phorbol compounds” (Salvia Sciences, Inc., priority 2005, dated 2011)
Converted amounts (≈) assume the structure as drawn. Read-outs that look alike come from different tables or passages of the source.

How the values were obtained:
HIV-1Ba-L = experiment: Anti-HIV efficacy in human monocyte/macrophages (p24 ELISA); type: cell-based
Experimental: SA-101A and SA-101B were tested for antiviral activity against HIV-1 virus in peripheral blood monocytes/macrophages. Monocytes/macrophages were derived from normal HIV-1 negative donors, and cultured under conditions which promote cell survival and HIV replication. Fresh human blood was obtained commercially from Biological Specialty Corporation (Colmar, Pa.). The low passage, monocytropic, clinical isolate HIV-1Ba-L (Subtype B, R5) was obtained from the NIAID AIDS Research and Reference Reagent Program. A pre-titered aliquot of HIV 1Ba-L was removed from the freezer (−80° C.) and thawed rapidly to room temperature in a biological safety cabinet immediately before use. Phytohemagglutinin (PHA-P) was obtained from Sigma (St. Louis, Mo.) and recombinant IL-2 was obtained from R&D Systems Inc. (Minneapolis, Minn.).
Compound preparation: Compounds SA-101A and SA-101B were in powder form and solubilized in DMSO prior to use. AZT (Sigma), solubilized in sterile dH2O, was used as the positive antiviral control. The compounds were tested at a 100 μg/mL high-test concentration; AZT was tested at a 1,000 ηM high-test concentration. Compound SA-101B was tested in the presence of 40% human AB serum.
Monocyte isolation and culture. Peripheral blood monocytes were isolated from screened donors sero-negative for HIV and HBV. Cells were pelleted by low speed centrifugation and re-suspended in PBS to remove contaminating platelets. The leukophoresed blood was then diluted with Dulbecco's phosphate buffered saline (PBS) and layered over of Lymphocyte Separation Medium (LSM; Cellgro® by Mediatech, Inc.; density 1.078+/−0.002 g/ml; Cat. # 85-072-CL) in a 50 mL centrifuge tube and then centrifuged. Banded PBMCs were gently aspirated from the interface and subsequently washed with PBS by low speed centrifugation. The cells were diluted to 4×10^6 cells per mL in DMEM without phenol red supplemented with 10% heat inactivated human pooled AB serum, 2 mM L-glutamine, 100 U/mL penicillin and 100 μg/mL streptomycin. Monocytes/macrophages were allowed to adhere to the interior 60 wells (100 μL/well) of a 96 well flat bottomed plate for 2 to 18 hours at 37° C., 5% CO2. The exterior wells were filled with 200 μL of sterile DPBS to serve as a humidity barrier. Following adherence of cells, the cultures were washed with sterile DPBS to remove non-adherent cells (lymphocytes and contaminating RBCs). […]
Anti-HIV efficacy evaluation in human monocyte/macrophages. […] At assay termination, virus replication was measured by collecting cell-free supernatant samples, which were analyzed for HIV p24 antigen content using a commercially available p24 ELISA assay (Coulter). […]

[1] = system: cell line ET (luc-ubi-neo/ET), human Huh7 hepatoma; experiment: CytoTox-ONE cytotoxicity in ET (luc-ubi-neo/ET) Huh7 cells; type: cell-based
Experimental: Luciferase assay. The ET cell line is grown in Dulbecco's modified essential media (DMEM), 10% fetal bovine serum (FBS), 1% penicillin-streptomycin (pen-strep), 1% glutamine, […] G418 in a 5% CO2 incubator at 37° C. All cell culture reagents are from Gibco Life Technologies. Cells are trypsinized (1% trypsin:EDTA) and plated out at 5×10^3 cells/well in white 96-well assay plates (Costar) dedicated to cell number (cytotoxicity) or antiviral activity (Luc) assessments. Drugs are added at five half-log concentrations each and the assay is run in DMEM, 5% FBS, 1% pen-strep, 1% glutamine. Human interferon alpha-2b (PBL Biolabs, New Brunswick, N.J.) is included in each run as a positive control compound. […] Compound IC50 and IC90 values (antiviral activity) are derived from plots of HCV RNA levels assessed as HCV RNA replicon-derived Luc activity versus drug concentration using Steady-Glo assay reagent (Promega), with Luc luminescence read on a 1450 Microbeta liquid scintillation and luminescence counter. Compound TC50 and TC90 values (cytotoxicity) are calculated from plots of cell number vs. drug concentration using data from the CytoTox-ONE cell proliferation assay (Promega); with fluorescence read using an Analyst HT fluorometer. […] Compound selectivity indices (SI=TC/IC) SI50 and SI90 values are calculated from spreadsheets.

SMILES | IC50 (HIV-1Ba-L; 40% Human AB serum) [µg/mL] | IC90 (HIV-1Ba-L; 40% Human AB serum) [µg/mL] | Cytotoxicity [1] | IC50 (HIV-1Ba-L; Human immunodeficiency virus 1, Macrophage, read-out: IC50) [µg/mL] | IC90 (HIV-1Ba-L; Human immunodeficiency virus 1, Macrophage, read-out: IC90) [µg/mL]
CC(=O)OC12CC(C)C3(O)C(C=C(COC(=O)CCC(=O)O)CC4(O)C(=O)C(C)=CC43)C1C2(C)C (stereo not drawn) [SA-101B, Prostratin Succinate] | 0.28 | 7.29 | did not display any appreciable cytotoxicity |  | 
CC(=O)O[C@@]12C[C@@H](C)[C@@]3(O)[C@@H](C=C(CO)C[C@]4(O)C(=O)C(C)=C[C@@H]34)[C@@H]1C2(C)C [SA-101A, 12-deoxyphorbol 13-acetate] |  |  | did not appear to be active or cytotoxic | 0.11 (≈ 0.282 µM) | 0.28 (≈ 0.717 µM)
